The text below walks through data of the SangsterLogP compilation.

The logP is a log measure of how a compound divides between an organic and an aqueous phase. Read a low logP as a more hydrophilic compound.

A short description of one data set: method code SF, from DOI: 10.1021/jm00213a023, PMID: 321779.
On to `Nc1ccc(C(=O)O)cc1N1C(=O)CSC1=S`, for which the logP was 1.66. Turning to `CCOc1cc(N)ccc1C(=O)O`, the logP worked out at 0.99.

Another data set in a line: method code SF-C, from DOI: 10.1021/jm00213a023, PMID: 321779.
As for `Cc1cc(N)ccc1C(=O)O`, the log partition coefficient (logP) turned out to be 1.14.

The next data set in a line: method code SF-AS, from DOI: 10.1021/jm00213a023, PMID: 321779.
As to `COc1cc(N)ccc1C(=O)O`, the logP was 0.45.

Molecule `Nc1ccc(C(=O)O)cc1Br` displayed a logP of 2.23. With `Nc1ccc(C(=O)O)c(N)c1`, the logP was -0.31. In turn, `Nc1ccc(C(=O)O)cc1I` yielded a logP of 2.36.

`Nc1ccc(C(=O)O)c(Cl)c1`: the logP was found to be 1.33.

`CC(C)CCOc1cc(N)ccc1C(=O)O` showed a logP of 2.3. `Nc1ccc(C(=O)O)cc1N` yielded a logP of 0.13. In turn, `CCCCCCCOc1cc(N)ccc1C(=O)O` had a logP of 3.37.

With `CCCCCCCCOc1cc(N)ccc1C(=O)O`, the logP stood at 3.77. `Nc1ccc(C(=O)O)c(F)c1` returned a logP of 1.29. Same read-out and setting: the value for `C=CCOc1cc(N)ccc1C(=O)O` was 1.25; that for `Nc1ccc(C(=O)O)cc1Cl` was 2.35. Still for that read-out and setting: the value for `Nc1ccc(C(=O)O)c(Br)c1` was 1.49; that for `CCCCOc1cc(N)ccc1C(=O)O` was 1.24; that for `CCCCCOc1cc(N)ccc1C(=O)O` was 2.38.

`Nc1ccc(C(=O)O)c([N+](=O)[O-])c1`: the logP is 1.21. For the molecule `Nc1ccc(C(=O)O)cc1O`, the logP turned out to be 0.5. The same measure, in the same setting: under `Nc1ccc(C(=O)O)c(I)c1` stands 1.65; under `Nc1ccc(C(=O)O)cc1F`, 1.41.
